Read-outs that look alike come from different tables or passages of the source.
Columns and labels:
Format in all cases: in vivo
[1] = tested on: Plutella xylostella (Diamond Back Moth); assay: Example B4: Plutella xylostella (diamond back moth), artificial diet, eggs, 24-well; conditions: 192 h, read-out: control in at least one of the two categories (mortality or growth inhibition)
Method: 24-well microtiter plates with artificial diet were treated with aqueous test solutions prepared from 10′000 ppm DMSO stock solutions by pipetting. After drying, Plutella eggs were pipetted through a plastic stencil onto a gel blotting paper and the plate was closed with it. The samples were assessed for mortality and growth inhibition in comparison to untreated samples 8 days after infestation.

[2] = tested on: Spodoptera littoralis (Egyptian Cotton Leaf Worm); assay: Example B7: Spodoptera littoralis (Egyptian cotton leaf worm), cotton leaf discs sprayed, L1 larvae; conditions: foliar, 72 h, application rate of 200 ppm, 3 days after infestation, L1 larvae, read-out: control in at least one of the three categories (mortality, anti-feedant effect, or growth inhibition)
Method: Cotton leaf discs were placed onto agar in 24-well microtiter plates and sprayed with aqueous test solutions prepared from 10′000 ppm DMSO stock solutions. After drying the leaf discs were infested with five L1 larvae. The samples were assessed for mortality, anti-feeding effect, and growth inhibition in comparison to untreated samples 3 days after infestation. Control of Spodoptera littoralis by a test sample is given when at least one of the categories mortality, anti-feedant effect, and growth inhibition is higher than the untreated sample.

[3] = tested on: Chilo suppressalis (Striped Rice Stemborer); assay: Example B3: Chilo suppressalis (striped rice stemborer), artificial diet, L2 larvae; conditions: 144 h, read-out: control in at least one of the three categories (mortality, anti-feedant effect, or growth inhibition)
Method: 24-well microtiter plates with artificial diet were treated with aqueous test solutions prepared from 10′000 ppm DMSO stock solutions by pipetting. After drying, the plates were infested with L2 larvae (6-8 per well). The samples were assessed for mortality, anti-feeding effect, and growth inhibition in comparison to untreated samples 6 days after infestation. Control of Chilo suppressalis by a test sample is given when at least one of the categories mortality, anti-feedant effect, and growth inhibition is higher than the untreated sample.

[4] = tested on: Diabrotica Balteata (Corn Root Worm); assay: Example B1: Diabrotica balteata (corn root worm), maize sprouts sprayed, L2 larvae; conditions: 96 h, read-out: control in at least one of the two categories (mortality or growth inhibition)
Method: Maize sprouts placed onto an agar layer in 24-well microtiter plates were treated with aqueous test solutions prepared from 10′000 ppm DMSO stock solutions by spraying. After drying, the plates were infested with L2 larvae (6 to 10 per well). The samples were assessed for mortality and growth inhibition in comparison to untreated samples 4 days after infestation.

[5] = application rate of 200 ppm, 8 days after infestation, eggs
[6] = application rate of 200 ppm, 6 days after infestation, L2 larvae

| Structure (SMILES) | percent control (mortality or growth inhibition) at 200 ppm [1, 5] [%] | percent control (mortality, anti-feedant effect or growth inhibition) at 200 ppm [2] [%] | percent control (mortality, anti-feedant effect or growth inhibition) at 200 ppm [3, 6] [%] | percent control (mortality or growth inhibition) at 200 ppm ([4]; application rate of 200 ppm, 4 days after infestation, L2 larvae) [%] | percent control (mortality or growth inhibition) at 200 ppm [1] [%] | percent control (mortality or growth inhibition) at 200 ppm [4] [%] | percent control (mortality, anti-feedant effect or growth inhibition) at 200 ppm [3] [%] |
| --- | --- | --- | --- | --- | --- | --- | --- |
| CC(Nc1ncnc2c(C(F)(F)F)cc(Cl)cc12)c1ncnn1-c1ccc(C#N)cn1 (stereo not shown) [P.41, 6-[5-[1-[[6-chloro-8-(trifluoromethyl)quinazolin-4-yl]amino]ethyl]-1,2,4-triazol-1-yl]pyridine-3-carbonitrile] | ≥ 80 | ≥ 80 | ≥ 80 | – | – | – | – |
| CC(Nc1ncnc2c(Br)cc(C(F)(F)F)cc12)c1ncnn1-c1ccc(C#N)cn1 (stereo not shown) [P.42, 6-[5-[1-[[8-bromo-6-(trifluoromethyl)quinazolin-4-yl]amino]ethyl]-1,2,4-triazol-1-yl]pyridine-3-carbonitrile] | ≥ 80 | ≥ 80 | ≥ 80 | – | – | – | – |
| CC(Nc1ncnc2c(Cl)cc(C(F)(F)F)cc12)c1ncnn1-c1ccc(C#N)cn1 (stereo not shown) [P.45, 6-[5-[1-[[8-chloro-6-(trifluoromethyl)quinazolin-4-yl]amino]ethyl]-1,2,4-triazol-1-yl]pyridine-3-carbonitrile] | ≥ 80 | ≥ 80 | ≥ 80 | – | – | – | – |
| CC(Nc1ncnc2c(Cl)cc(C(F)(F)F)cc12)c1nccnc1-c1ccc(C#N)cn1 (stereo not shown) [P.121, 6-[3-[1-[[8-chloro-6-(trifluoromethyl)quinazolin-4-yl]amino]ethyl]pryazin-2-yl]pyridine-3-carbonitrile] | – | ≥ 80 | ≥ 80 | – | – | – | – |
| CC(c1nccnc1-c1ccc(C#N)cn1)N(C)c1ncnc2c(C(F)(F)F)cc(Br)cc12 (stereo not shown) [P.125, 6-[3-[1-[[6-bromo-8-(trifluoromethyl)quinazolin-4-yl]-methyl-amino]ethyl]pyrazin-2-yl]pyridine-3-carbonitrile] | ≥ 80 | ≥ 80 | – | – | – | – | – |
| CC(Nc1ncnc2c(C(F)(F)F)cc(Br)cc12)c1ncnn1-c1ccc(OC(F)F)cn1 (stereo not shown) [P.195, 6-bromo-N-[1-[2-[5-(difluoromethoxy)-2-pyridyl]-1,2,4-triazol-3-yl]ethyl]-8-(trifluoromethyl)quinazolin-4-amine] | – | ≥ 80 | ≥ 80 | – | – | – | – |
| C[C@@H](c1ncnn1-c1ccc(C#N)cn1)N(C)c1ncnc2c(C(F)(F)F)cc(Br)cc12 [P.204, 6-[5-[(1S)-1-[[6-bromo-8-(trifluoromethyl)quinazolin-4-yl]-methyl-amino]ethyl]-1,2,4-triazol-1-yl]pyridine-3-carbonitrile] | ≥ 80 | ≥ 80 | – | – | – | – | – |
| COc1ccc(CN(c2ncnc3c(C(F)(F)F)cc(C(F)(F)F)cc23)C(C)c2nccnc2-c2ncccn2)cc1 (stereo not shown) [P.225, N-[(4-methoxyphenyl)methyl]-N-[1-(3-pyrimidin-2-ylpyrazin-2-yl)ethyl]-6,8-bis(trifluoromethyl)quina-zolin-4-amine] | ≥ 80 | – | ≥ 80 | ≥ 80 | – | – | – |
| C[C@@H](c1ncnn1-c1ccc(C#N)cn1)N(C(=O)Oc1ccccc1)c1ncnc2c(C(F)(F)F)cc(C(F)(F)F)cc12 [P.226, phenyl N-[6,8-bis(trifluoromethyl)quina-zolin-4-yl]-N-[(1S)-1-[2-(5-cyano-2-pyridyl)-1,2,4-triazol-3-yl]ethyl]carbamate] | – | – | – | – | ≥ 80 | ≥ 80 | ≥ 80 |
| CC(c1nccnc1-c1ccc(C#N)cn1)N(C)c1ncnc2c(C(F)(F)F)cc(Cl)cc12 (stereo not shown) [P.275, 6-[3-[1-[[6-chloro-8-(trifluoromethyl)quinazolin-4-yl]-methyl-amino]ethyl]pyrazin-2-yl]pyridine-3-carbonitrile] | – | ≥ 80 | ≥ 80 | – | – | – | – |
